Data on 18 compounds can be found in patent publication US20250188075A1, “SUBSTITUTED HETEROCYCLIC CSNK1 INHIBITORS” (The Broad Institute, Inc., priority 2022, published 2025).

Like-named read-outs stand apart in the source and are kept apart here.

The target of one assay is human CSNK1A1 (Homo sapiens (Human), UniProt P48729). Briefly: CSNK1A1 high ATP assay (ADP-Glo, 1 mM ATP). It counts as biochemical. The following applies: median, read-out: CSNK1A1 High ATP assay IC50 [mol/l] (median). The method, then:
CSNK1A1-inhibitory activity of compounds of the present invention in presence of 1 mM adenosine-tri-phosphate (ATP) was quantified employing the CSNK1A1-high-ATP-assay as described in the following paragraphs. In essence, the enzyme activity is measured by quantification of the adenosine-di-phosphate (ADP), which is generated as a co-product of the enzyme reaction, via the “ADP-Glo™ Kinase Assay” kit from the company Promega. This detection system works as follows: In a first step the ATP not consumed in the kinase reaction is quantitatively converted to CAMP employing an adenylate cyclase (“ADP-Glo-reagent”), then the adenylate cyclase is stopped and the ADP generated in the kinase reaction converted to ATP which generates in a luciferase-based reaction a glow-luminescence signal (“Kinase Detection Reagent”).
Recombinant fusion protein of N-terminal Glutathion-S-Transferase (GST) and full-length human CSNK1A1, expressed by baculovirus infected insect cells and purified via Glutathion affinity chromatography, was purchased from Life Technologies (product no. PV4174) and used as enzyme. As substrate for the kinase reaction the biotinylated peptide biotin-Ahx-KRRRAL-pS-VASLPGL (C-terminus in amide form) was used which can be purchased e.g. from the company Biosyntan (Berlin-Buch, Germany).
For the assay 50 nl of a 100 fold concentrated solution of the test compound in DMSO was pipetted into a white low volume 384-well microtiter plate (Greiner Bio-One, Frickenhausen, Germany), 2 μL of a solution of CSNK1A1 in aqueous assay buffer [50 mM HEPES pH 7.5, 10% (v/v) glycerol, 10 mM MgCl2, 50 mM NaCl, 1 mM dithiothreitol, 0.01% (w/v) bovine serum albumin, 0.01% (v/v) Triton X-100] were added and the mixture was incubated for 15 min at 22° C. to allow pre-binding of the test compounds to the enzyme before the start of the kinase reaction. Then the kinase reaction was started by the addition of 3 μL of a solution of ATP (1.67 mM=>final conc. in the 5 μL assay volume is 1 mM) and peptide substrate (167 μM=>final conc. in the 5 μL assay volume is 100 μM) in assay buffer and the resulting mixture was incubated for a reaction time of 30 min at 22° C. The concentration of CSNK1A1 was adjusted depending of the activity of the enzyme lot and was chosen appropriate to have the assay in the linear range, a typical concentration is about 0.4 ng/μL. The reaction was stopped by the addition of 2.5 μL of “ADP-Glo-reagent” (1:1.5 fold diluted with water) and the resulting mixture was incubated at 22° C. for 1 h to convert the ATP not consumed in the kinase reaction completely to CAMP. Subsequently 2.5 μL of the “kinase detection reagent” (1.2 fold more concentrated than recommended by the producer) were added, the resulting mixture was incubated at 22° C. for 1 h and then the luminescence measured with a suitable measurement instrument (e.g. Viewlux™ from Perkin-Elmer). The amount of emitted light was taken as a measure for the amount of ADP generated and thereby for the activity of the CSNK1A1.
The data were normalised (enzyme reaction without inhibitor=0% inhibition, all other assay components but no enzyme=100% inhibition).
(In general: ADP-Glo turns the ADP formed in a reaction into a luminescent signal.)

The next assay concerns HT-29 cells. Briefly: HT29 cell proliferation assay, CTG method. Conditions: HT-29, CTG, 96 h, median, read-out: 2D-PROLI HT-29 CTG 96 h, IC50 - [mol/l] (median). It counts as cell-based. The method, then:
CELL PROLIFERATION ASSAY CTG METHOD, 384-well version: Day 1: plated 400 cells/30 μL/well in growth medium (DMEM/Ham's F12; (Biochrom; #FG 4815, mit stabilem Glutamin)+FCS (final: 10%); (Biochrom; #S 0415)) in 384-well black plates (Corning #3571). Plated sister wells in a separate plate for time zero determination. Incubated all plates overnight at 37° C. Day 2: added test compounds in serial dilutions using the HP D300 Digital Dispenser and incubated at 37° C. for 96 h. Measured time zero plate: add 30 μL/well CTG solution (Promega CellTiter-Glo solution (catalog #G7573)) to wells in time zero plate; incubated for 2 minutes in a orbital shaker to induce cell lysis; allowed the plate to incubate at room temperature for additional 10 min to stabilize luminescent signal and read luminescence on PheraStar (rapid mode—0.02 sec/well; GAIN 3000). Day 6: Added 30 μL/well CTG solution to all test wells, incubated for 2 minutes in a orbital shaker to induce cell lysis; allowed the plate to incubate at room temperature for additional 10 min to stabilize luminescent signal and read luminescence on PheraStar (rapid mode—0.02 sec/well; GAIN 3000 Proliferation IC50s were calculated using the DRC application in ShiNy Analysis Platform-SNAP.”

The next assay has as its system HCT 116 cells. Kind of assay: HCT 116 cell proliferation assay, CTG. The assay is classed as cell-based. The following applies: HCT 116, CTG, 96 h, median, read-out: 2D-PROLI HCT 116 CTG 96 h, IC50 - [mol/l] (median). The method, then: 400 HCT 116 cells/30 μL/well were plated in growth medium (DMEM/Ham's F12, 10% FCS) in a 384-well plate (CORNING #3571) at day 1. Reference plate was seeded for time zero determination. All plates were incubated overnight 37° C. Day 2: test compound was added in 7-step dilution and incubate at 37° C. for 96 h. Day 2: time zero plate: 30 μL/well CTG solution (Promega Cell Titer Glo solution; catalog #G755B and G756B) were added, incubated for 30 minutes, read luminescence on PheraStar. Day 6: compound treated plates: 30 μL/well CTG solution (Promega Cell Titer Glo solution; catalog #G755B and G756B) were added, incubated for 30 minutes, luminescence was read on PheraStar. Proliferation was calculated after subtracting time zero luminescence values from day 6 values and comparing to untreated wells. The IC50 values were determined using the four parameter fit.

Chain of human CSNK1A1 (P48729 whole entry): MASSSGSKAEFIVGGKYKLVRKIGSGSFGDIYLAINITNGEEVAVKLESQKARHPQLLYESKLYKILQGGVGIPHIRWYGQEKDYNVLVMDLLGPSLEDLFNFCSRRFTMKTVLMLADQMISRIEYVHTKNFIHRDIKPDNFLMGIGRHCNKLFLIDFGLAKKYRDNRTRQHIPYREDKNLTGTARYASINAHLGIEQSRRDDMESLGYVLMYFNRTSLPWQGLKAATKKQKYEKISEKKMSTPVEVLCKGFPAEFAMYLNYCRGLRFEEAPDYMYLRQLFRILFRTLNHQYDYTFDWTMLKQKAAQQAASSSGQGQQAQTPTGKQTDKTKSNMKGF

With `O=C(Cc1cnc2ccccc2n1)Nc1cc(-c2[nH]c3cccnc3c2-c2ccccn2)ccn1` [Example 6, N-[4-[3-(2-pyridyl)-^1H-pyrrolo[3,2-b]pyridin-2-yl]-2-pyridyl]-2-quinoxalin-2-yl-acetamide], the IC50 at human CSNK1A1 is 6.06 nM; in the assay with HT-29 cells (Homo sapiens), 125 nM; with HCT 116 cells (Homo sapiens) it was 91.1 nM.

For the compound `O=C(Cc1cc2ccccn2n1)Nc1cc(-c2[nH]c3cccnc3c2-c2ccccn2)ccn1` [Example 15, 2-pyrazolo[1,5-a]pyridin-2-yl-N-[4-[3-(2-pyridyl)-^1H-pyrrolo[3,2-b]pyridin-2-yl]-2-pyridyl]acetamide], the IC50 came to 24.2 nM at human CSNK1A1, 149 nM in the assay on HT-29 cells (Homo sapiens) and 171 nM with HCT 116 cells (Homo sapiens).

For the compound `O=C(Cc1ccon1)Nc1cc(-c2[nH]c3cccnc3c2-c2ccccn2)ccn1` [Example 10, 2-isoxazol-3-yl-N-[4-[3-(2-pyridyl)-^1H-pyrrolo[3,2-b]pyridin-2-yl]-2-pyridyl]acetamide], the IC50 with HT-29 cells (Homo sapiens) was found to be 797 nM; with HCT 116 cells (Homo sapiens), 848 nM.

In the case of `Cc1cc(CC(=O)Nc2cc(-c3[nH]c4cccnc4c3-c3ccccn3)ccn2)on1` [Example 13, 2-(3-methylisoxazol-5-yl)-N-[4-[3-(2-pyridyl)-^1H-pyrrolo[3,2-b]pyridin-2-yl]-2-pyridyl]acetamide], the IC50 came out at 41.3 nM on human CSNK1A1, 442 nM in the assay with HT-29 cells (Homo sapiens) and 626 nM in the assay with HCT 116 cells (Homo sapiens).

Turning to `O=C(Nc1cc(-c2[nH]c3c(OCC(F)F)ncnc3c2-c2ccccn2)ccn1)[C@@H](CC(F)F)c1ccc(F)cc1` [Example C3, reference compound], the IC50 on human CSNK1A1 was 8.84 nM; in the assay on HT-29 cells it was 110 nM; in the assay with HCT 116 cells, 735 nM.

Consider `O=C(Cc1ccno1)Nc1cc(-c2[nH]c3cccnc3c2-c2ccccn2)ccn1` [Example 23, 2-isoxazol-5-yl-N-[4-[3-(2-pyridyl)-^1H-pyrrolo[3,2-b]pyridin-2-yl]-2-pyridyl]acetamide], for which the IC50 is 50.1 nM at human CSNK1A1, 768 nM in the assay with HT-29 cells (Homo sapiens) and 553 nM in the assay with HCT 116 cells (Homo sapiens).

On to `Cc1noc(C)c1CC(=O)Nc1cc(-c2[nH]c3cccnc3c2-c2ccccn2)ccn1` [Example 12, 2-(3,5-dimethylisoxazol-4-yl)-N-[4-[3-(2-pyridyl)-^1H-pyrrolo[3,2-b]pyridin-2-yl]-2-pyridyl]acetamide], for which the IC50 turned out to be 66.9 nM on human CSNK1A1, 1190 nM in the assay on HT-29 cells (Homo sapiens) and 1080 nM with HCT 116 cells (Homo sapiens).

For the compound `O=C(Cc1ccns1)Nc1cc(-c2[nH]c3cccnc3c2-c2ccccn2)ccn1` [Example 22, 2-isothiazol-5-yl-N-[4-[3-(2-pyridyl)-^1H-pyrrolo[3,2-b]pyridin-2-yl]-2-pyridyl]acetamide], the IC50 at human CSNK1A1 turned out to be 41.2 nM; in the assay with HT-29 cells (Homo sapiens), 337 nM; in the assay with HCT 116 cells (Homo sapiens), 357 nM.

Turning to `Cc1cc(CC(=O)Nc2cc(-c3[nH]c4cccnc4c3-c3ccccn3)ccn2)n(C)n1` [Example 14], the results for the IC50 on human CSNK1A1, in the assay with HT-29 cells (Homo sapiens) and in the assay with HCT 116 cells (Homo sapiens) were 30.6 nM, 508 nM and 544 nM, respectively.

As for `CC(C)n1ccc(CC(=O)Nc2cc(-c3[nH]c4cccnc4c3-c3ccccn3)ccn2)n1` [Example 28, 2-(1-isopropylpyrazol-3-yl)-N-[4-[3-(2-pyridyl)-^1H-pyrrolo[3,2-b]pyridin-2-yl]-2-pyridyl]acetamide], the results for the IC50 in the assay on HT-29 cells (Homo sapiens) and with HCT 116 cells (Homo sapiens) were 314 nM and 586 nM, respectively.

With `Cc1nn(C)c(C)c1CC(=O)Nc1cc(-c2[nH]c3cccnc3c2-c2ccccn2)ccn1` [Example 17, N-[4-[3-(2-pyridyl)-^1H-pyrrolo[3,2-b]pyridin-2-yl]-2-pyridyl]-2-(1,3,5-trimethylpyrazol-4-yl)acetamide], the IC50 stood at 124 nM on human CSNK1A1, 1180 nM in the assay with HT-29 cells (Homo sapiens) and 1030 nM in the assay with HCT 116 cells (Homo sapiens).

Consider `Cc1cc(CC(=O)Nc2cc(-c3[nH]c4cccnc4c3-c3ccccn3)ccn2)nn1C` [Example 16, 2-(1,5-dimethylpyrazol-3-yl)-N-[4-[3-(2-pyridyl)-^1H-pyrrolo[3,2-b]pyridin-2-yl]-2-pyridyl]acetamide], for which the IC50 on human CSNK1A1 came out at 70.8 nM; in the assay with HT-29 cells (Homo sapiens), 627 nM; in the assay with HCT 116 cells (Homo sapiens) it was 706 nM.

With `O=C(Cc1cnco1)Nc1cc(-c2[nH]c3cccnc3c2-c2ccccn2)ccn1` [Example 4], the IC50 was determined as 588 nM in the assay on HT-29 cells (Homo sapiens) and 535 nM in the assay with HCT 116 cells (Homo sapiens).

On to `Cc1ncc(CC(=O)Nc2cc(-c3[nH]c4cccnc4c3-c3ccccn3)ccn2)o1` [Example 24, 2-(2-methyloxazol-5-yl)-N-[4-[3-(2-pyridyl)-^1H-pyrrolo[3,2-b]pyridin-2-yl]-2-pyridyl]acetamide], for which the values for the IC50 in the assay on HT-29 cells (Homo sapiens) and in the assay with HCT 116 cells (Homo sapiens) were 481 nM and 418 nM, respectively.

On to `Cc1nc(CC(=O)Nc2cc(-c3[nH]c4cccnc4c3-c3ccccn3)ccn2)co1` [Example 25, 2-(2-methyloxazol-4-yl)-N-[4-[3-(2-pyridyl)-^1H-pyrrolo[3,2-b]pyridin-2-yl]-2-pyridyl]acetamide], for which the IC50 stood at 630 nM in the assay with HT-29 cells (Homo sapiens) and 985 nM with HCT 116 cells (Homo sapiens).

Take `Cc1nocc1CC(=O)Nc1cc(-c2[nH]c3cccnc3c2-c2ccccn2)ccn1` [Example 30, 2-(3-methylisoxazol-4-yl)-N-[4-[3-(2-pyridyl)-^1H-pyrrolo[3,2-b]pyridin-2-yl]-2-pyridyl]acetamide]: the IC50 amounted to 1650 nM with HT-29 cells (Homo sapiens) and 1140 nM in the assay on HCT 116 cells (Homo sapiens).

For the compound `Cc1ocnc1CC(=O)Nc1cc(-c2[nH]c3cccnc3c2-c2ccccn2)ccn1` [Example 11, 2-(5-methyloxazol-4-yl)-N-[4-[3-(2-pyridyl)-^1H-pyrrolo[3,2-b]pyridin-2-yl]-2-pyridyl]acetamide], the IC50 in the assay on HT-29 cells (Homo sapiens) was found to be 1410 nM; in the assay with HCT 116 cells (Homo sapiens), 964 nM.

For `Cc1nn(C)cc1CC(=O)Nc1cc(-c2[nH]c3cccnc3c2-c2ccccn2)ccn1` [Example 9, 2-(1,3-dimethylpyrazol-4-yl)-N-[4-[3-(2-pyridyl)-^1H-pyrrolo[3,2-b]pyridin-2-yl]-2-pyridyl]acetamide], the IC50 in the assay on HT-29 cells (Homo sapiens) was found to be 860 nM; with HCT 116 cells (Homo sapiens) it was 817 nM.
